For 16 molecules, IC50 and Ki results are on record in ChEMBL document CHEMBL1909046, “DrugMatrix in vitro pharmacology data”.

Structures are written as SMILES.

In test [1] the target is T1, Alpha-1D adrenergic receptor (Homo sapiens, UniProt P25100). Also: in other assays of this panel Not Active means under 50% inhibition at 10 µM.
T1 sequence (P25100 whole entry): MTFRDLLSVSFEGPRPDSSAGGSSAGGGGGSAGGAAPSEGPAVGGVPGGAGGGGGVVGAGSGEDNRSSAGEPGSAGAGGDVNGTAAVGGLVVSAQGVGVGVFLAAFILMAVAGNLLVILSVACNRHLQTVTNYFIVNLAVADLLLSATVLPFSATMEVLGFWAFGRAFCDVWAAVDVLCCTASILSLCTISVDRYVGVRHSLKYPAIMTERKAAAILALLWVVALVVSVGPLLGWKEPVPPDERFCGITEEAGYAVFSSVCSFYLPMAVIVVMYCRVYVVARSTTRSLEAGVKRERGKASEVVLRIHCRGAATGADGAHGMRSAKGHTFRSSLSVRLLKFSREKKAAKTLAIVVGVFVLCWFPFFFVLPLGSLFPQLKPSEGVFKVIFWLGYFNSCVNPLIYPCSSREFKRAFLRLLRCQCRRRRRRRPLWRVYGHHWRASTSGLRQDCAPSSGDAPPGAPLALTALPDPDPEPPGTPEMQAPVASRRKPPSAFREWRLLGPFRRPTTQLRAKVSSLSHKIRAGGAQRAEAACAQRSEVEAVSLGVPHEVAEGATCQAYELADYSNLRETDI
It counts as cell membranes, HEK293, Membrane.

A short description of test [2]: DRUGMATRIX: Atrial Natriuretic Factor (ANF) radioligand binding (ligand: [125I] ANF (rat)). In kind it is cell membranes, Cavia porcellus, Dunkin-Hartley, Adrenal gland, Membrane. Particulars: Not Active = under 50% inhibition at 10 µM.
The target in test [3] is D(1A) dopamine receptor (Homo sapiens, UniProt P21728). Kind of test: DRUGMATRIX: Dopamine D1 radioligand binding (ligand: [3H] SCH-23390). It counts as cell membranes, CHO, Membrane. Particulars: cho; Not Active = under 50% inhibition at 10 µM.
D(1A) dopamine receptor, sequence (P21728 whole entry): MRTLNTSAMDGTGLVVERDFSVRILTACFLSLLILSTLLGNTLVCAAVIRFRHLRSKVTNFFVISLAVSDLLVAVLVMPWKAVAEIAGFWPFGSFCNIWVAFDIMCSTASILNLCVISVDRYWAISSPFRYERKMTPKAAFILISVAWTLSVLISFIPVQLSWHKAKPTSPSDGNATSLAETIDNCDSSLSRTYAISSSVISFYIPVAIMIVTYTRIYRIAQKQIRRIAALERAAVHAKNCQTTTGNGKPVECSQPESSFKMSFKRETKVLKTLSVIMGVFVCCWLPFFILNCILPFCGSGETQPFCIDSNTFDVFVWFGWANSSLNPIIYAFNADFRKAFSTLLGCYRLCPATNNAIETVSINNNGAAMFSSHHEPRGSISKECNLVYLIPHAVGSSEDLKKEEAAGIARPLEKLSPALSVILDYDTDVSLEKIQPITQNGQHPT
Test [4] deals with Insulin receptor (Rattus norvegicus, UniProt P15127). It counts as cell membranes, Wistar, Liver, Membrane.
Insulin receptor, sequence (P15127 27-759 limits assumed): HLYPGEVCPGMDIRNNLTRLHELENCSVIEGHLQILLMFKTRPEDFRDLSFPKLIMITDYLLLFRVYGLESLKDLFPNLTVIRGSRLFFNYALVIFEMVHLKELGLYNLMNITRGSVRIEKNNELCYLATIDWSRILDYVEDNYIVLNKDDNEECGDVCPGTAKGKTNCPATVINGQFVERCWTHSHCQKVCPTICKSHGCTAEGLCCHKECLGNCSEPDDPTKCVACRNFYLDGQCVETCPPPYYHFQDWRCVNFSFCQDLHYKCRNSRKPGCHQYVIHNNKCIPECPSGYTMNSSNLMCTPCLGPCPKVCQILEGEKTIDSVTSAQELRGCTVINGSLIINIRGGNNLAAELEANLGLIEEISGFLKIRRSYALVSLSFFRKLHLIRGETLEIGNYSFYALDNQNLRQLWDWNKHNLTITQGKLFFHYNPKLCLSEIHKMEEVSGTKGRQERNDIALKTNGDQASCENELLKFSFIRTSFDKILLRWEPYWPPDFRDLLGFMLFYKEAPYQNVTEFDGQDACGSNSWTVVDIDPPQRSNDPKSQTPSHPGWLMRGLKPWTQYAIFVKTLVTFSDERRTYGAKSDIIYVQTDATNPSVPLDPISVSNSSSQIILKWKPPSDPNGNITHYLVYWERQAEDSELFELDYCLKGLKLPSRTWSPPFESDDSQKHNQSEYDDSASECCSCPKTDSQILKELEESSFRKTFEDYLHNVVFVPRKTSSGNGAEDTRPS
Insulin receptor, sequence (P15127 764-1383 limits assumed): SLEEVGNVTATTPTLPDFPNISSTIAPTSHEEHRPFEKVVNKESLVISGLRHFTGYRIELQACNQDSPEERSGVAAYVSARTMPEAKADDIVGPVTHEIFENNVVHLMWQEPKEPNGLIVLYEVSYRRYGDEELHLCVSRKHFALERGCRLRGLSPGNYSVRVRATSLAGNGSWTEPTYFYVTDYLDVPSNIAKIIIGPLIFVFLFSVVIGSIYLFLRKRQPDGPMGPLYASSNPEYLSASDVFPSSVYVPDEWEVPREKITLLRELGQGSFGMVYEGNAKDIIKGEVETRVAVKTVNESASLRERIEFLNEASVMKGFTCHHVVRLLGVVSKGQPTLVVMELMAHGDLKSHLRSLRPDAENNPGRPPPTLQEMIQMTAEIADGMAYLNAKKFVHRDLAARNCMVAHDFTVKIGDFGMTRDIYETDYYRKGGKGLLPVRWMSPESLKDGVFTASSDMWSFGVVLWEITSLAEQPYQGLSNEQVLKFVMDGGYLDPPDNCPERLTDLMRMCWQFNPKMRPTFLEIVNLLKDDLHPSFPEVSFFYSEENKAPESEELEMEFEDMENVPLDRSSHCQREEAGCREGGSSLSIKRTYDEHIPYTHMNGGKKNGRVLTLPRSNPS
The target in test [5] is Mu-type opioid receptor (Homo sapiens, UniProt P35372). Kind of test: DRUGMATRIX: Opiate mu (OP3, MOP) radioligand binding (ligand: [3H] Diprenorphine). Particulars: cho-k1; Not Active = under 50% inhibition at 10 µM. In kind it is cell membranes, CHO-K1, Membrane.
Mu-type opioid receptor, sequence (P35372 whole entry): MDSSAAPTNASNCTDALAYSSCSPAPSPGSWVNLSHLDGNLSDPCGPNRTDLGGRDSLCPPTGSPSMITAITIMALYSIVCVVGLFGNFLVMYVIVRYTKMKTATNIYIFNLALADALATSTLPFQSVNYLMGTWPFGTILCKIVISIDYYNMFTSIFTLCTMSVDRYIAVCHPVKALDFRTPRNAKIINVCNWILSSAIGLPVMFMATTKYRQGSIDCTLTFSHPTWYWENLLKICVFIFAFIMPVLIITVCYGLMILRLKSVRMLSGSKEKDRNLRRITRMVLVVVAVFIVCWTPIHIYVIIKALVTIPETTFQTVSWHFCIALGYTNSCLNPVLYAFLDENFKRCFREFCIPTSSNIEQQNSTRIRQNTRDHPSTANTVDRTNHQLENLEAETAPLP
A short description of test [6]: DRUGMATRIX: Potassium Channel [KATP] radioligand binding (ligand: [3H] Glyburide). In kind it is cell membranes, Membrane. Particulars: hit-t15; Not Active = under 50% inhibition at 10 µM.
The target in test [7] is Tyrosine-protein kinase Fyn (Homo sapiens, UniProt P06241). The experiment in a line: biochemical. In kind it is cell-based, Insect cells. Particulars: insect cells.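 Also: enzymatic inhibition of Fyn kinase activity measured with Poly(Glu:Tyr) as the phosphorylation substrate; in other assays of this panel Not Active means under 50% inhibition at 10 µM.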
Tyrosine-protein kinase Fyn, sequence (P06241 whole entry): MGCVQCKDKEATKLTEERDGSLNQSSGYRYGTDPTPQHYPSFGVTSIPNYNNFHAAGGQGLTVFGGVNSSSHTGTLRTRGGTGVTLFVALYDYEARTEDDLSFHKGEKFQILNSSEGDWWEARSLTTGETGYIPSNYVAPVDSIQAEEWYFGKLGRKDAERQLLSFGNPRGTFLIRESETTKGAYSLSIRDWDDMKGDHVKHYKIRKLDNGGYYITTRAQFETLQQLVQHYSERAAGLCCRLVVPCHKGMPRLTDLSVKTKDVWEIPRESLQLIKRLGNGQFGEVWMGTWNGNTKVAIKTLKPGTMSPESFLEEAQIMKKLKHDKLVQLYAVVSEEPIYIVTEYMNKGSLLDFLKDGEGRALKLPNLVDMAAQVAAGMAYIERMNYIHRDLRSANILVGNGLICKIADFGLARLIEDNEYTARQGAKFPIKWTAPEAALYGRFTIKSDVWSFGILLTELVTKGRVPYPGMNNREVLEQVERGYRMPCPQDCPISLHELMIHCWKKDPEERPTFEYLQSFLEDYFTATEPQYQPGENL

In the case of `CCC1(CCC(C)C)C(=O)NC(=O)NC1=O` [AMOBARBITAL], the IC50 result in test [1] (hek293), in test [2], in test [3], in test [4], in test [5] and in test [6] was “Not Active” throughout. In addition, the half-maximal inhibitory concentration (IC50) result in test [7] is listed as “Not Active”. The Ki entry in test [2] and in test [6] was “Not Active” in each case.
Take `CC1(C)S[C@@H]2[C@H](NC(=O)[C@H](N)c3ccccc3)C(=O)N2[C@H]1C(=O)O` [AMPICILLIN]: the IC50 entry in test [1] (hek293), in test [2], in test [3], in test [4], in test [5] and in test [6] was “Not Active” in each case. Also, the IC50 result in test [7] is “Not Active”. The Ki entry in test [2] and in test [6] was “Not Active” in each case.
For `COc1ccc(C2C(=O)c3ccccc3C2=O)cc1` [ANISINDIONE], the concentration for half-maximal inhibition (IC50) result in test [1] (hek293), in test [2], in test [3], in test [4], in test [5] and in test [6] was “Not Active” throughout. In addition, the IC50 result in test [7] is given as “Not Active”. Moreover, the Ki result in test [2] and in test [6] was “Not Active” each time.
As to `O=C1O[C@H]([C@@H](O)CO)C(O)=C1O` [ASCORBIC ACID], the IC50 entry in test [1] (hek293), in test [2], in test [3], in test [4], in test [5] and in test [6] was “Not Active” each time. In addition, in test [7], the IC50 result is on record as “Not Active”. Besides, the Ki entry in test [2] and in test [6] was “Not Active” throughout.
Consider `CN1[C@@H]2CC[C@H]1C[C@@H](OC(=O)C(CO)c1ccccc1)C2` (some centres not stated) [ATROPINE], for which the Ki is 666 nM in test [1], “Not Active” in test [2] and “Not Active” in test [6]. Also, the IC50 in test [1] (read-out: IC50) was 1350 nM; in test [2], “Not Active”; in test [3] it was “Not Active”; in test [4] it was “Not Active”; in test [5], “Not Active”; in test [6], “Not Active”. Moreover, the IC50 entry in test [7] is “Not Active”.
With `CC(C(=O)O)c1ccc2oc(-c3ccc(Cl)cc3)nc2c1` (configuration not stated) [BENOXAPROFEN], the IC50 entry in test [1] (hek293), in test [2], in test [3], in test [4], in test [5] and in test [6] was “Not Active” in each case. In addition, the IC50 result in test [7] is “Not Active”. Besides, the Ki result in test [2] and in test [6] was “Not Active” each time.
For `O=C(O)CCNC(=O)c1ccccc1` [BETAMIPRON], the IC50 entry in test [1] (hek293), in test [2], in test [3], in test [4], in test [5] and in test [6] was “Not Active” each time. Besides, the IC50 entry in test [7] was “Not Active”. Moreover, the inhibition constant (Ki) entry in test [2] and in test [6] was “Not Active” in each case.
As for `CC(=O)Oc1ccc(C(c2ccc(OC(C)=O)cc2)c2ccccn2)cc1` [BISACODYL], the IC50 result in test [1] (hek293), in test [2], in test [3], in test [4], in test [5] and in test [6] was “Not Active” each time. The IC50 result in test [7] is on record as “Not Active”. The inhibition constant (Ki) result in test [2] and in test [6] was “Not Active” throughout.
Consider `Cc1cc2c(OCC(CNC(C)(C)C)OC(=O)c3ccccc3)cccc2[nH]1` (configuration not stated) [BOPINDOLOL], for which the IC50 entry in test [1] (hek293), in test [2], in test [3], in test [4], in test [5] and in test [6] was “Not Active” throughout. Besides, the IC50 entry in test [7] is listed as “Not Active”. Further, the inhibitory constant (Ki) entry in test [2] and in test [6] was “Not Active” in each case.
With `Brc1c(NC2=NCCN2)ccc2nccnc12` [BRIMONIDINE], the IC50 in test [1] (read-out: IC50) was 1720 nM; in test [2], “Not Active”; in test [3], “Not Active”; in test [4], “Not Active”; in test [5] it was “Not Active”; in test [6], “Not Active”. For the same molecule, the half-inhibitory concentration (IC50) entry in test [7] was “Not Active”. Also, the Ki in test [1] (read-out: Ki) is 846 nM; in test [2], “Not Active”; in test [6], “Not Active”.
With `CN(C)[C@@H]1C(O)=C(C(N)=O)C(=O)[C@@]2(O)C(O)=C3C(=O)c4c(O)ccc(Cl)c4[C@@](C)(O)[C@H]3C[C@@H]12` [CHLORTETRACYCLINE], the IC50 result in test [1] (hek293), in test [2], in test [3], in test [4], in test [5] and in test [6] was “Not Active” in each case. In test [7], the IC50 result was “Not Active”. In addition, the Ki entry in test [2] and in test [6] was “Not Active” in each case.
Turning to `CN/C(=N\CCSCc1nc[nH]c1C)NC#N` [CIMETIDINE], the IC50 result in test [1] (hek293), in test [2], in test [3], in test [4], in test [5] and in test [6] was “Not Active” throughout. In addition, the IC50 entry in test [7] was “Not Active”. In addition, the Ki result in test [2] and in test [6] was “Not Active” each time.
As to `COc1cc(N)c(Cl)cc1C(=O)NC1CCN(CCCOc2ccc(F)cc2)CC1OC` (configuration not stated) [CISAPRIDE], the half-inhibitory concentration (IC50) in test [1] (read-out: IC50) is 189 nM; in test [2] it was “Not Active”; in test [3], “Not Active”; in test [4], “Not Active”; in test [5] it was “Not Active”; in test [6], “Not Active”. For the same molecule, the half-maximal inhibitory concentration (IC50) result in test [7] was “Not Active”. Moreover, the values for the Ki in test [1] (read-out: Ki), in test [2] and in test [6] were 93 nM, “Not Active” and “Not Active”, respectively.
For the molecule `CCC(=O)O[C@]1(C(=O)CCl)[C@@H](C)C[C@H]2[C@@H]3CCC4=CC(=O)C=C[C@]4(C)[C@@]3(F)[C@@H](O)C[C@@]21C` [CLOBETASOL PROPIONATE], the IC50 result in test [1] (hek293), in test [2], in test [3], in test [4], in test [5] and in test [6] was “Not Active” each time. The IC50 result in test [7] is “Not Active”. For the same molecule, the Ki entry in test [2] and in test [6] was “Not Active” throughout.
`O=C1CN=C(c2ccccc2Cl)c2cc([N+](=O)[O-])ccc2N1` [CLONAZEPAM]: the IC50 result in test [1] (hek293), in test [2], in test [3], in test [4], in test [5] and in test [6] was “Not Active” throughout. In addition, the IC50 result in test [7] is reported as “Not Active”. Further, the Ki entry in test [2] and in test [6] was “Not Active” throughout.
Take `Nc1ccn([C@@H]2O[C@H](CO)[C@@H](O)[C@@H]2O)c(=O)n1` [CYTARABINE]: the half-inhibitory concentration (IC50) result in test [1] (hek293), in test [2], in test [3], in test [4], in test [5] and in test [6] was “Not Active” each time. In addition, the IC50 entry in test [7] was “Not Active”. The Ki entry in test [2] and in test [6] was “Not Active” each time.

A word on the IC50: it is the point on the concentration scale where inhibition reaches its midpoint. In general, Ki refers to the dissociation constant of the complex between target and ligand, obtained from inhibition or displacement.
